Key:
PGC-1α = test: In vitro PGC-1α expression in differentiated C2C12 cells (cell ELISA); format: cell-based
Protocol: Culture conditions: DMEM containing 25 mM glucose with 10% FBS supplementation; grown at 37° C. and 5% CO2.
Drugs: (+)Epicatechin, AICAR (direct activator of AMPK).
Assay Conditions: C2C12 cells were cultured in DMEM supplemented in 10% FBS up to 80% confluence. The cells were further trypsinized and seeded into a 96 well plate at a density of 5000 cells/well (well volume—100 μL) (Day 0). Following attachment, the cells were allowed to reach 80-90% confluence in the plate (typically 48 hours post seeding) and further differentiated using DMEM+2% Horse Serum (200 μL/well). The media was changed every day or at least every alternate day for 5 days to allow myoblasts to differentiate into myotubes. On day 7 (post seeding), the cells were treated with standards and test compounds for PGC-1 α assay.
PGC-1α assay: For the detection of PGC-1α, the cells were incubated with 0.5 μg/ml primary antibody (Merck, WH0010891M3) in PBS-T containing 5% BSA at 4° C. overnight. The cells were then washed three times with PBS-T for 5 minutes and incubated with 1:1000 dilution secondary antibody (Anti-rabbit IgG, HRP-linked Antibody, Cell Signaling) in PBS-T with 1% BSA for 1 hour at RT. Cells were washed three times with PBS-T for 5 minutes The cells were incubated with 100 μl TMB substrate solution for 30 minutes and the reaction was stopped with 100 μl of 2N H2SO4. […] (For plate optical density calculations, a background correction was taken at 540 nm). The final PGC-1α activation % is average of activation of 6 replicates.

[1] = Pharmacokinetics: quantitative determination in mice brains (LCMS); format: in vivo, C57BL/6 Mice; details: mice brain, 10 mg/kg PO single dose, 10% NMP vehicle; for Tmax: C57BL/6, mouse
Protocol: C57BL/6 Mice, Age 7-9 weeks, body weight range 20-25 g were used. The mice were fasted overnight. Mice were dosed once a day for a single day at 10 mg/kg, 10 mg/kg. 6 time-points were used for whole blood. 10% NMP was used as a vehicle. 9 animals were used per treatment, with three groups of three animals each. Group 1 had time points at 15 and 60 minutes, Group 2 had time points at 30 and 120 minutes, and Group 3 had time points at 90 and 240 minutes. An Oral (PO) route was used. Plasma and brain samples were collected (brain sample collected at terminal time point). Plasma was collected through the centrifugation of whole blood at 10,000 rpm for 10 minutes at 4° C. Samples were stored at −80° C. until processing.
1.00 mg/mL in 100% MeOH PP vials (prepared at RT yellow light) at 2-8° C. were used as stock solution. 12.22-50000 ng/mL using 80% MeOH PP vials (prepared at RT yellow light) at 2-8° C. were used as working solution. 0.48-2000 ng/ml (prepared at RT yellow light) was used for the curve range. For Compounds 75b and 78a, 1.00 mg/mL of Compound 79 in 100% methanol Ria vials (Prepared at RT yellow light) was used as IS stock solution, and 60 ng/ml of Compound 79 in 80% methanol (Prepared at RT yellow light) was used as IS working solution. For Compound 76b, 1.00 mg/mL of Compound 44 in 100% methanol Ria vials (Prepared at RT yellow light) was used as IS stock solution, and 60 ng/ml of Compound 44 in 80% methanol (Prepared at RT yellow light) was used as IS working solution. A linear, 1/x2 fit type was used. The injection volume was 15 μL. Mobile Phase A was 0.1% Formic Acid in water at room temperature. Mobile Phase B was 100% methanol at room temperature. R0 wash solution was 80% methanol at room temperature. R^3 wash solution was IPA/MeOH/ACN/water (1:1:1:1) at room temperature. The column was Agilent Eclipse 50*2.1 mm 1.8 μm and the instrument was Shimadzu LC-40 UPLC and AB Sciez 6500+ with LCMS002.
For Compound 75b, 100 mg of brain tissue were weighed, 400 μL of Ice cold PBS was added, and the sample was homogenated using a polytron homogenizer. Before starting the experiment the blade was cleaned with NS, Methanol, Methanol:Water (50:50) followed by NS. Using a pipette with Methanol-rinsed pipette tips, 50 μL of each sample (calibration curve sample, QC samples and blank matrix) was aliquot to labeled 12×75-mm glass tubes. Using Methanol-rinsed pipette tips, 5.0 μL of IS of conc. 60 ng (Compound 79) was added to each standard and samples except Blank. All tubes were mixed on a multi-tube vortex for approximately 30 seconds. 1 ml of Ethyl Acetate was added. All tubes were mixed on a multi-tube vortex for approximately 5 minutes then centrifuged for 10 min at 5,000 rpm, 4° C. The sample was kept in methanol containing dry ice for few seconds to freeze the Aqueous layer (flash freeze method). The upper organic layer was poured from the frozen tubes into the labeled 12×75-mm glass tubes then evaporated to dryness under nitrogen using Liquid Evaporator (30° C., −15 psi, ˜ 10 mins). 200 μl of reconstitution solution (10 mM Ammonium Formate:MeOH (40:60 v/v) was added into each tube, which was then vortexed for 30 seconds and transferred to amber glass injection vials for injection. At the terminal time points, animals were euthanized after blood sample collection. Their skulls were opened and whole brains were separated and collected in previously labeled tubes. The tubes were then immediately transferred into liquid nitrogen container for snap freezing. Later the samples were stored at −80° C.
For Compounds 76b and 78a, 100 mg of brain tissue were weighed, 400 μL of Ice cold PBS was added, and the samples were homogenated using a polytron homogenizer. Before starting the experiment the blade was cleaned with NS, Methanol, Methanol:Water (50:50) followed by NS. […]

[2] = Table 3, differentiated C2C12 cells, 0.001 nM, DMSO control = 100%, OD@650 nm

With `COc1cc(C2Oc3ccccc3CC2O)ccc1F` (single isomer, unassigned) [Compound 75b, 2-(4-fluoro-3-methoxyphenyl)chroman-3-ol] the “% Activity (PGC-1α expression)” value (PGC-1α; Table 3, differentiated C2C12 cells, 0.0001 nM, DMSO control = 100%) was 118%, the “% Activity (PGC-1α expression)” value (PGC-1α; [2]) was 125% and the “% Activity (PGC-1α expression)” value (PGC-1α; Table 3, differentiated C2C12 cells, 0.01 nM, DMSO control = 100%) was 122%. The “% Activity (PGC-1α expression)” value (PGC-1α; Table 3, differentiated C2C12 cells, 0.1 nM, DMSO control = 100%) was 116%, the “% Activity (PGC-1α expression)” value (PGC-1α; Table 3, differentiated C2C12 cells, 1 nM, DMSO control = 100%) was 120% and the “% Activity (PGC-1α expression)” value (PGC-1α; Table 4, differentiated C2C12 cells, 0.01 nM, OD at 5 minutes) was 130%. The Tmax [1] was 1 h and the AUC0-4 [1] was 238.5399 hr*g/tissue.

With `Oc1cc(O)c2c(c1)O[C@H](c1ccc(O)c(O)c1)[C@H](O)C2` [Epicatechin, (+)Epicatechin, reference compound] the “% Activity (PGC-1α expression)” value (PGC-1α; [2]) was 119%, the “% Activity (PGC-1α expression)” value (PGC-1α; Table 4, differentiated C2C12 cells, 0.001 nM, OD at 5 minutes) was 120% and the “% Activity (PGC-1α expression)” value (PGC-1α; Table 5, differentiated C2C12, 5000 cells/well, 0.001 nM, DMSO = 100) was 133%. For the same compound, the “% Activity (PGC-1α expression)” value (PGC-1α; Table 6, C2C12 cells, 5000 cells/well, 0.001 nM) was 127%, the “% Activity (PGC-1α expression)” value (PGC-1α; Table 7, C2C12 cells, 5000 cells/well, 0.001 nM, DMSO = 100) was 133% and the “% Activity (PGC-1α expression)” value (PGC-1α; Table 8, C2C12 cells, 5000 cells/well, 0.001 nM, DMSO = 100) was 139%.

With `Oc1cc(O)c2c(c1)OC(c1ccccc1)C(O)C2` (single isomer, unassigned) [Compound 78a, 2-phenylchromane-3,5,7-triol] the “% Activity (PGC-1α expression)” value (PGC-1α; Table 8, C2C12 cells, 5000 cells/well, 0.01 nM, DMSO = 100) was 128%, the Tmax [1] was 1 h and the AUC0-4 [1] was 29.135 hr*g/tissue.

In the case of `Oc1ccc2c(c1)OC(c1ccc(O)c(C(F)(F)F)c1)C(O)C2` (single isomer, unassigned) [Compound 77b, 2-(4-hydroxy-3-(trifluoromethyl)phenyl)chromane-3,7-diol], the “% Activity (PGC-1α expression)” value (PGC-1α; Table 6, C2C12 cells, 5000 cells/well, 0.01 nM) is reported as 138% and the “% Activity (PGC-1α expression)” value (PGC-1α; Table 7, C2C12 cells, 5000 cells/well, 0.01 nM, DMSO = 100) is reported as 135%.

In the case of `Oc1cc(O)c2c(c1)OC(c1ccc(O)c(F)c1)C(O)C2` (single isomer, unassigned) [Compound 76b, 2-(3-fluoro-4-hydroxyphenyl)chromane-3,5,7-triol], the “% Activity (PGC-1α expression)” value (PGC-1α; Table 5, differentiated C2C12, 5000 cells/well, 0.01 nM, DMSO = 100) is reported as 128%, the Tmax [1] is reported as 1 h and the AUC0-4 [1] is reported as 5.993 hr*g/tissue.

Source: patent US20240254135A1, “POLYPHENOL COMPOUNDS” (Epirium Bio Inc., priority 2022, published 2024)
